How the values were obtained:
Kv7.2 [1] = biological target: T1, Kv7.2 (Homo sapiens, UniProt O43526); experiment: Whole-cell patch-clamp on CHO cells transiently expressing Kv7.2; assay type: cell-based; settings: for EC50: Kv7.2, shift in ramp-voltage (ΔV) at 20% of maximal current, 0.01-10 µM; for Idrug/Ictl at 0 mV: ratio of ramp-evoked Kv7.2 current amplitude in presence and absence of drug at 0 mV; for Idrug/Ictl at 0 mV / Idrug/Ictl at -40 mV: CHO cells, mean±SEM, >1 activating, <1 inhibiting; for Idrug/Ictl at -40 mV: ratio of ramp-evoked Kv7.2 current amplitude in presence and absence of drug at -40 mV
T1 construct: expressed in transfected cells; host or cells: CHO cells (ATCC CRL-9618), transient transfection, pcDNA3.1(+)

Kv7.2 [2] = experiment: as above; assay type: cell-based, human; settings: ratio of EC50 values Kv7.3/Kv7.2
Kv7.1 = biological target: T2, Kv7.1 (Homo sapiens, UniProt P51787); experiment: Whole-cell patch-clamp on CHO cells transiently expressing Kv7.1; assay type: cell-based; settings: shift in ramp-voltage (ΔV) at 20% of maximal current, 0.01-10 µM
T2 construct: expressed in transfected cells; host or cells: CHO cells (ATCC CRL-9618), transient transfection, pcDNA3.1(+)
Experimental: (§1) According to the experimental protocol, these plasmids were expressed individually or in combination (in particular of Kv7.2 and Kv7.3), together with a plasmid-expressing enhanced green fluorescent protein (Clontech, Palo Alto, CA) used as a transfection marker. Total cDNA in the transfection mixture was kept at 4 µg. CHO cells were grown in 100-mm plastic Petri dishes in Dulbecco's modified Eagle's medium containing 10% fetal bovine serum, nonessential amino acids (0.1 mM), penicillin (50 U/ml), and streptomycin ([…]) in a humidified atmosphere at 37°C with 5% CO2. The cells were plated on glass coverslips coated with poly-L-lysine, and transfected one day after plating with the appropriate cDNA using Lipofectamine 2000 (Life Technologies), according to the manufacturer's protocol.
Currents from CHO cells were recorded at room temperature (20-22°C) 24 hours after trasfection using the whole-cell configuration of the patch-clamp technique, with glass micropipettes of 3-5 MΩ resistance. During the recording, constant perfusion of extracellular solution was maintained. The extracellular solution contained (in mM): 138 NaCl, 2 CaCl2, 5.4 KCl, 1 MgCl2, 10 glucose, and 10 HEPES, at pH 7.4, adjusted with NaOH. The pipette (intracellular) solution contained (in mM): 140 KCl, 2 MgCl2, 10 EGTA, 10 HEPES, 5 Mg^2+-ATP, at pH 7.3-7.4, adjusted with KOH. Currents were recorded using an Axopatch-200A amplifier, filtered at 5 kHz, and digitized using a DigiData 1440A (Molecular Devices). The pCLAMP software (version 10.2, Molecular Devices) was used for data acquisition and analysis. To evaluate the activity of exemplary compounds on Kv7.2 (see Table 1), as well as on Kv7.1, Kv7.2/7.3, Kv7.3 and Kv7.4 channels for selected compounds (see Table 2), the cells were clamped at -80 mV and currents were elicited by 3-s voltage ramps from -80 mV to +20 mV in the presence and absence of each compound. […] The effects of drugs were expressed as shift in the ramp-voltage (ΔV) calculated at 20% of the maximal current (Miceli et al, Proc Natl Acad Sci U S A. 2013, 110(11):4386-91). […]

Kv7.2/7.3 = biological target: T3, Kv7.2/7.3 (Homo sapiens, UniProt O43525+O43526); experiment: Whole-cell patch-clamp on CHO cells co-expressing Kv7.2 and Kv7.3; assay type: cell-based; settings: for EC50: Kv7.2/7.3, shift in ramp-voltage (ΔV) at 20% of maximal current, 0.01-10 µM
T3 construct: expressed in transfected cells; host or cells: CHO cells (ATCC CRL-9618), transient co-transfection, pcDNA3.1(+)
Experimental: as §1
Currents from CHO cells were recorded at room temperature (20-22°C) 24 hours after trasfection using the whole-cell configuration of the patch-clamp technique, with glass micropipettes of 3-5 MΩ resistance. During the recording, constant perfusion of extracellular solution was maintained. The extracellular solution contained (in mM): 138 NaCl, 2 CaCl2, 5.4 KCl, 1 MgCl2, 10 glucose, and 10 HEPES, at pH 7.4, adjusted with NaOH. The pipette (intracellular) solution contained (in mM): 140 KCl, 2 MgCl2, 10 EGTA, 10 HEPES, 5 Mg^2+-ATP, at pH 7.3-7.4, adjusted with KOH. Currents were recorded using an Axopatch-200A amplifier, filtered at 5 kHz, and digitized using a DigiData 1440A (Molecular Devices). The pCLAMP software (version 10.2, Molecular Devices) was used for data acquisition and analysis. To evaluate the activity of exemplary compounds on Kv7.2 (see Table 1), as well as on Kv7.1, Kv7.2/7.3, Kv7.3 and Kv7.4 channels for selected compounds (see Table 2), the cells were clamped at -80 mV and currents were elicited by 3-s voltage ramps from -80 mV to +20 mV in the presence and absence of each compound. […] The effects of drugs were expressed as shift in the ramp-voltage (ΔV) calculated at 20% of the maximal current (Miceli et al, Proc Natl Acad Sci U S A. 2013, 110(11):4386-91). Curves were fitted using the following equation: y=max/(1+x/EC50)n, where x is the drug concentration, n is the Hill coefficient and max is the maximal value achieved, as previously described (Ambrosino et al, Br J Pharmacol. 2013, 168(6):1430-1444). Data analysis and fit were performed using Sigmaplot (version 12.3).

Kv7.3 = biological target: T4, Kv7.3 (Homo sapiens, UniProt O43525); experiment: Whole-cell patch-clamp on CHO cells transiently expressing Kv7.3; assay type: cell-based; settings: shift in ramp-voltage (ΔV) at 20% of maximal current, 0.01-10 µM
T4 construct: expressed in transfected cells; host or cells: CHO cells (ATCC CRL-9618), transient transfection, pcDNA3.1(+)
Experimental: as §1
(§2) Currents from CHO cells were recorded at room temperature (20-22°C) 24 hours after trasfection using the whole-cell configuration of the patch-clamp technique, with glass micropipettes of 3-5 MΩ resistance. During the recording, constant perfusion of extracellular solution was maintained. […] Currents were recorded using an Axopatch-200A amplifier, filtered at 5 kHz, and digitized using a DigiData 1440A (Molecular Devices). […] The effects of drugs were expressed as shift in the ramp-voltage (ΔV) calculated at 20% of the maximal current (Miceli et al, Proc Natl Acad Sci U S A. 2013, 110(11):4386-91). […]

Kv7.4 = biological target: T5, Kv7.4 (Homo sapiens, UniProt P56696); experiment: Whole-cell patch-clamp on CHO cells transiently expressing Kv7.4; assay type: cell-based; settings: shift in ramp-voltage (ΔV) at 20% of maximal current, 0.01-10 µM
T5 construct: expressed in transfected cells; host or cells: CHO cells (ATCC CRL-9618), transient transfection, pcDNA3.1(+)
Experimental: as §1, §2

Kv7.2 W236L = biological target: T6, Kv7.2 W236L (Homo sapiens, UniProt O43526, W236L); experiment: Whole-cell patch-clamp on CHO cells expressing Kv7.2 W236L mutant channels; assay type: cell-based; settings: 10 µM
T6 construct: expressed in transfected cells; host or cells: CHO cells (ATCC CRL-9618), transient transfection, pcDNA3.1(+)
Experimental: as §1, §2

[3] = Solution stability (HPLC, extracellular solution, ambient temperature); assay type: physicochemical; settings: percentage of degradation after 6 h at ambient temperature; 100 ppm in extracellular solution pH 7.4
Method in brief: (§3)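 Analyte diluted from 1 mg/mL DMSO stock to 100 ppm in extracellular buffer (NaCl, CaCl2, KCl, MgCl2, glucose, HEPES, pH 7.4) and either kept at ambient temperature or irradiated with a solar simulator, each for 6 h. C18 RP-HPLC (40°C) peak areas at 0 and 6 h give % degradation = (Pa0−Pa6)/Pa0 ×100.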

[4] = Photostability (HPLC, solar simulator irradiation); assay type: physicochemical; settings: for Photostability: percentage of degradation after 6 h irradiation with solar simulator, 100 ppm in extracellular solution pH 7.4
Method in brief: as §3

[5] = cited from earlier work

Structure (SMILES) | EC50 (Kv7.2 [1]) | Idrug/Ictl at 0 mV (Kv7.2 [1]) | Idrug/Ictl at -40 mV (Kv7.2 [1]) | potency in activating Kv7.2 compared to Kv7.3 homomers (Kv7.2 [2]) | EC50 (Kv7.1) | EC50 (Kv7.2/7.3) | potency relative to retigabine in increasing Kv7.2/3 currents (Kv7.2/7.3; from EC50 values of Table 2) | EC50 (Kv7.3) | EC50 (Kv7.4) | ratio between current amplitude in the presence and absence of the drug at -40 mV (Kv7.2 W236L) | Solution stability [3] | Photostability [4] | drug degraded after exposure to light ([4]; after 6 hours of exposure to light) | fast absorption after oral administration (time after administration) [5]
CCCCCCC(=O)Nc1ccc2c(ccn2Cc2ccc(C(F)(F)F)cc2)c1 [N-(1-(4-(trifluoromethyl)benzyl)-1H-indol-5-yl)heptanamide] | 80 ± 40 nM | 3.24±0.18 | 9.34±0.82 | about 130 fold | Inactive | 210 ± 140 nM | eight times more potent than retigabine | 10.5 ± 6 µM | 100 ± 20 nM | 1.3±0.3 | A (degradation lower than 20%) | A (degradation lower than 20%) |  | 
CCOC(=O)Nc1ccc(NCc2ccc(F)cc2)cc1N [Retigabine, reference compound] | 930 ± 430 nM | 1.95±0.12 | 6.20±1.03 | 4 fold | Inactive | 1720 ± 410 nM |  | 3.9 ± 1.7 µM | 1980 ± 840 nM | 1.2±0.1 | A (degradation lower than 20%) | C (degradation > 40%) | > 40% | 1.5 to 2.0 h

From patent EP3917907B1, “MODULATORS OF POTASSIUM ION CHANNELS AND USES THEREOF” (Universitá Degli Studi Di Salerno, priority 2019, dated 2020)
